The supplement of paper PMC4380931
± gives the standard deviation of the averaged measurements.

Tests used:
Experiment in all cases: apoptotic fraction of cells (caspase-3 NucView488 positive); higher = more apoptosis
WM1552C = tested on: WM1552C
Procedure: (§1)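 BRAF V600E/D melanoma cell lines were seeded in 96-well plates, treated in 4 replicates with seven doses (3.16 nM to 3.16 uM) of RAF/MEK inhibitors for 24, 48 or 72 h, and stained with Hoechst 33342 (nuclei) and DEVD-NucView488 caspase-3 substrate. Plates were imaged on an Operetta. Relative viability is the cell count normalised to a DMSO-treated control; apoptosis fraction is the fraction of NucView488-positive nuclei.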

RVH421 = tested on: RVH421
Procedure: as §1

MZ7MEL = tested on: MZ7MEL
Procedure: as §1

SKMEL28 = tested on: SKMEL28
Procedure: as §1

COLO858 = tested on: COLO858
Procedure: as §1

C32 = tested on: C32
Procedure: as §1

CN(C)CCOc1ccc(-c2nc(-c3ccncc3)c(-c3ccc4c(c3)CC/C4=N\O)[nH]2)cc1
apoptotic fraction of cells
Conditions | 0.00316 µM | 0.01 µM | 0.0316 µM | 0.1 µM | 0.316 µM | 1 µM | 3.16 µM
C32, 24 h | 0.0901 ± 0.021 | 0.138 ± 0.019 | 0.159 ± 0.036 | 0.194 ± 0.016 | 0.225 ± 0.022 | 0.24 ± 0.016 | 0.271 ± 0.0045
C32, 48 h | 0.0832 ± 0.026 | 0.121 ± 0.015 | 0.0893 ± 0.019 | 0.077 ± 0.0098 | 0.189 ± 0.015 | 0.38 ± 0.018 | 0.524 ± 0.021
C32, 72 h | 0.0657 ± 0.019 | 0.0532 ± 0.014 | 0.0299 ± 0.004 | 0.0807 ± 0.013 | 0.274 ± 0.017 | 0.474 ± 0.021 | 0.542 ± 0.043
COLO858, 24 h | 0.0451 ± 0.0046 | 0.0421 ± 0.0016 | 0.0423 ± 0.0054 | 0.0572 ± 0.0078 | 0.0792 ± 0.0043 | 0.123 ± 0.0074 | 0.13 ± 0.011
COLO858, 48 h | 0.0512 ± 0.0043 | 0.0508 ± 0.002 | 0.0484 ± 0.0043 | 0.0742 ± 0.014 | 0.153 ± 0.015 | 0.237 ± 0.027 | 0.341 ± 0.047
COLO858, 72 h | 0.0855 ± 0.0058 | 0.0692 ± 0.0062 | 0.0676 ± 0.0058 | 0.077 ± 0.0066 | 0.141 ± 0.012 | 0.268 ± 0.021 | 0.424 ± 0.021
MZ7MEL, 24 h | 0.0126 ± 0.0024 | 0.0117 ± 0.0056 | 0.0102 ± 0.0055 | 0.0118 ± 0.0058 | 0.0151 ± 0.0018 | 0.0236 ± 0.0062 | 0.0357 ± 0.0065
MZ7MEL, 48 h | 0.0138 ± 0.0015 | 0.019 ± 0.0044 | 0.0145 ± 0.0061 | 0.0141 ± 0.0027 | 0.0253 ± 0.0069 | 0.0408 ± 0.0078 | 0.0727 ± 0.015
MZ7MEL, 72 h | 0.017 ± 0.0043 | 0.0127 ± 0.0036 | 0.0173 ± 0.0057 | 0.0271 ± 0.0072 | 0.0568 ± 0.0073 | 0.0967 ± 0.016 | 0.143 ± 0.0086
RVH421, 24 h | 0.0543 ± 0.01 | 0.0588 ± 0.0063 | 0.0478 ± 0.0083 | 0.0495 ± 0.00077 | 0.0536 ± 0.012 | 0.062 ± 0.00089 | 0.0619 ± 0.01
RVH421, 48 h | 0.05 ± 0.0024 | 0.0534 ± 0.0099 | 0.0615 ± 0.014 | 0.0578 ± 0.0068 | 0.0567 ± 0.0061 | 0.0708 ± 0.013 | 0.0883 ± 0.015
RVH421, 72 h | 0.0342 ± 0.0022 | 0.0346 ± 0.0019 | 0.0361 ± 0.0019 | 0.044 ± 0.0038 | 0.0408 ± 0.0037 | 0.0371 ± 0.0035 | 0.033 ± 0.0053
SKMEL28, 48 h | 0.0386 ± 0.0058 | 0.034 ± 0.0031 | 0.0305 ± 0.002 | 0.0338 ± 0.0019 | 0.042 ± 0.0053 | 0.0432 ± 0.0014 | 0.0466 ± 0.0071
SKMEL28, 72 h | 0.0377 ± 0.00065 | 0.0332 ± 0.0076 | 0.0271 ± 0.0062 | 0.0305 ± 0.0039 | 0.0316 ± 0.0049 | 0.0381 ± 0.0067 | 0.259 ± 0.042
WM1552C, 24 h | 0.059 ± 0.013 | 0.05804 ± 0.00024 | 0.0561 ± 0.01 | 0.0693 ± 0.0014 | 0.0643 ± 0.0076 | 0.0626 ± 0.0028 | 0.0608 ± 0.008
WM1552C, 48 h | 0.075 ± 0.0069 | 0.0725 ± 0.012 | 0.0713 ± 0.016 | 0.067 ± 0.013 | 0.0576 ± 0.0032 | 0.0631 ± 0.012 | 0.0655 ± 0.017
WM1552C, 72 h | 0.0862 ± 0.0034 | 0.0741 ± 0.0093 | 0.0679 ± 0.0047 | 0.0654 ± 0.0012 | 0.0685 ± 0.0037 | 0.0776 ± 0.0066 | 0.113 ± 0.014

Cc1ccc(NC(=O)c2cccc(C(C)(C)C#N)c2)cc1Nc1ccc2ncn(C)c(=O)c2c1 [AZ628]
apoptotic fraction of cells
Conditions | 0.00316 µM | 0.01 µM | 0.0316 µM | 0.1 µM | 0.316 µM | 1 µM | 3.16 µM
C32, 24 h | 0.0886 ± 0.003 | 0.128 ± 0.017 | 0.177 ± 0.042 | 0.226 ± 0.023 | 0.28 ± 0.018 | 0.338 ± 0.034 | 0.24 ± 0.017
C32, 48 h | 0.0865 ± 0.014 | 0.103 ± 0.017 | 0.0851 ± 0.017 | 0.213 ± 0.017 | 0.509 ± 0.052 | 0.847 ± 0.011 | 0.9051 ± 0.0087
C32, 72 h | 0.0829 ± 0.007 | 0.0581 ± 0.01 | 0.0379 ± 0.0014 | 0.301 ± 0.017 | 0.676 ± 0.038 | 0.886 ± 0.026 | 0.941 ± 0.012
COLO858, 24 h | 0.0485 ± 0.0059 | 0.0403 ± 0.0028 | 0.0435 ± 0.0063 | 0.0728 ± 0.0065 | 0.105 ± 0.011 | 0.136 ± 0.015 | 0.171 ± 0.0066
COLO858, 48 h | 0.0518 ± 0.0063 | 0.0435 ± 0.0043 | 0.0477 ± 0.0086 | 0.12 ± 0.034 | 0.221 ± 0.011 | 0.296 ± 0.046 | 0.436 ± 0.033
COLO858, 72 h | 0.0847 ± 0.0054 | 0.0691 ± 0.0041 | 0.0679 ± 0.0052 | 0.109 ± 0.011 | 0.225 ± 0.019 | 0.381 ± 0.024 | 0.534 ± 0.015
MZ7MEL, 24 h | 0.0132 ± 0.006 | 0.0129 ± 0.0019 | 0.0104 ± 0.0083 | 0.00814 ± 0.0047 | 0.0204 ± 0.0053 | 0.032 ± 0.015 | 0.0453 ± 0.0093
MZ7MEL, 48 h | 0.0137 ± 0.0038 | 0.0171 ± 0.0039 | 0.0173 ± 0.00068 | 0.0263 ± 0.006 | 0.0421 ± 0.0069 | 0.0561 ± 0.0057 | 0.0749 ± 0.0098
MZ7MEL, 72 h | 0.0208 ± 0.0082 | 0.0145 ± 0.0031 | 0.0428 ± 0.01 | 0.156 ± 0.011 | 0.236 ± 0.026 | 0.265 ± 0.026 | 0.293 ± 0.012
RVH421, 24 h | 0.0557 ± 0.0032 | 0.0513 ± 0.00054 | 0.04611 ± 0.00017 | 0.0493 ± 0.0032 | 0.0559 ± 0.012 | 0.0518 ± 0.00084 | 0.0578 ± 0.014
RVH421, 48 h | 0.0503 ± 0.011 | 0.053 ± 0.0075 | 0.0555 ± 0.015 | 0.0583 ± 0.0065 | 0.0645 ± 0.0092 | 0.0779 ± 0.011 | 0.108 ± 0.014
RVH421, 72 h | 0.0338 ± 0.0032 | 0.032 ± 0.0035 | 0.038 ± 0.003 | 0.0442 ± 0.0059 | 0.0517 ± 0.0043 | 0.105 ± 0.011 | 0.165 ± 0.016
SKMEL28, 48 h | 0.04 ± 0.0087 | 0.0326 ± 0.0059 | 0.032 ± 0.0054 | 0.0352 ± 0.0054 | 0.0404 ± 0.0032 | 0.063 ± 0.0078 | 0.09 ± 0.0097
SKMEL28, 72 h | 0.0319 ± 0.0039 | 0.028 ± 0.0073 | 0.0262 ± 0.0049 | 0.0319 ± 0.011 | 0.0526 ± 0.0099 | 0.107 ± 0.0053 | 0.142 ± 0.0076
WM1552C, 24 h | 0.0672 ± 0.0095 | 0.0724 ± 0.0046 | 0.0622 ± 0.0018 | 0.0716 ± 0.0026 | 0.0799 ± 0.0038 | 0.0776 ± 0.006 | 0.104 ± 0.018
WM1552C, 48 h | 0.0725 ± 0.013 | 0.0688 ± 0.012 | 0.0702 ± 0.021 | 0.0329 ± 0.014 | 0.0464 ± 0.022 | 0.0857 ± 0.02 | 0.108 ± 0.032
WM1552C, 72 h | 0.0855 ± 0.004 | 0.0732 ± 0.0055 | 0.0827 ± 0.026 | 0.0883 ± 0.0036 | 0.134 ± 0.0099 | 0.153 ± 0.0054 | 0.172 ± 0.0067
